Source: patent US7345043B2, “Inhibitors of histone deacetylase” (Miikana Therapeutics, priority 2004, dated 2008)

Legend:
[1] = tested on: HDAC (HeLa cell nuclear extract, a mosaic of HDAC enzymes); assay: In vitro fluorescent histone deacetylase (HDAC) activity assay; format: biochemical; conditions: HeLa cell nuclear extract as HDAC source, 50 μM substrate, 10 min at room temperature (in some assays recombinant HDAC8); read-out: IC50 HDAC Inhibition
Protocol: Histone deacetylase (HDAC) activity assays were performed using the HDAC fluorescent activity assay/drug discovery kit (Biomol Research Laboratories, Plymouth Meeting, Pa.) essentially according to the manufacturer's instructions. The included HeLa cell nuclear extract, which contains a mosaic of HDAC enzymes and other nuclear factors, was used as the source of HDAC activity. The final substrate concentration in the assay mixture was 50 μM. The reaction was allowed to proceed for 10 min at room temperature before stopping the reaction. Test compounds were prepared as 20 mM stock solutions in DMSO (Molecular Biology grade, Sigma-Aldrich Co., St. Louis, Mo.) and stored at −70° C. Serial dilutions of test compounds were prepared in assay buffer immediately prior to testing. DMSO was determined in a separate trial to have no significant effect on the activity of this assay at concentrations up to 5%; the final DMSO concentration in the wells was no more than 2% and therefore DMSO effects were safely neglected. Assays were performed in white polystyrene 96-well half-area assay plates (Corning, Corning, N.Y.) and measured on a Wallace 1420 fluorescent plate reader (Wallac Oy, Turku, Finland) with an excitation wavelength of 355 nm, an emission wavelength of 460 nm, and a 1 sec signal averaging time.
In some assays recombinant HDAC8 (Biomol) was used as the source of the enzyme activity; here the final substrate concentration was 250 μM, the final concentration of HDAC8 was 0.02 u/μL and the reaction was allowed to proceed at 37° C. for 1 h before stopping. For all curves, IC50 values were calculated with the GraFit curve-fitting program (Erithacus, Horley, Surrey, UK).

MCF7 cells = assay: Whole cell cytotoxicity assay: Sulforhodamine B; format: cell-based; conditions: Homo sapiens, 48 hours with drug, Sulforhodamine B staining
Protocol: Whole Cell Cytotoxicity Assay:Sulforhodamine B
The following procedure can be found on the Developmental Therapeutics Program NCI/NIH web site at http://dtp.nci.nih.gov/brancehes/btb/ivclsp.html.
1. Human tumor cell lines of HT29, A549 and MCF7 are grown in DMEM containing 10% fetal bovine serum and 2 mM L-glutamine. Cells are plated in a 96 well plate at a density of 5000 cells per well in 100 μL of growth medium and incubated at 37° C., 5% CO2, for 24 hours prior to the addition of experimental compounds.
2. Experimental drugs are solubilized in DMSO for a final concentration of 20 mM immediately prior to use. Drugs are further diluted in growth media for a total of nine drug concentrations and a growth control. At the 24-hour time point, one plate of cells is fixed in situ with TCA as a measurement of the cell population at time zero, or the time of drug addition.
3. The plates are further incubated with drug for an additional 48 hours.
4. The cells are fixed in situ by gently aspirating off the culture media and then adding 50 μL of ice cold 10% TCA per well and incubated at 4° C. for 60 minutes. The plates are washed with tap water five times and allowed to air dry for 5 minute.
5. 50 μl of a 0.4% (w/v) Sulforhodamine B solution in 1% (v/v) acetic acid is added per well and incubated for 30 minutes at room temperature.
6. Following staining, plates are washed five times with 1% acetic acid to remove any unbound dye and then allowed to air dry for 5 minutes.
7. Stain is solubilized with 100 μL of 10 mM Tris pH 10.5 per well and placed on an orbital rotator for 5 minutes.
8. Absorbance is read at 570 nm.

SMILES | IC50 [1] | GI50 (MCF7 cells)
O=C(/C=C/c1cnc(N2CCN(S(=O)(=O)c3ccc(C(F)(F)F)cc3)CC2)s1)NO [Example 4g] | 14.5 µM | 3 µM
Cc1ccc(S(=O)(=O)NC2CCN(c3ncc(C(=O)NO)s3)CC2)cc1 [Example 5d] | – | 15 µM
Cc1ccc(S(=O)(=O)N2CCN(c3ncc(/C=C/C(=O)NO)s3)CC2)cc1 [Example 4f] | 0.55 µM | 2 µM
O=C(NO)c1cnc(N2CCN(C(=O)Cc3ccccc3)CC2)s1 [Example 23, 2-(4-phenylacetyl-piperazin-1-yl)-thiazole-5-carboxylic acid hydroxamide] | 31.6 µM | 20 µM
O=C(NO)c1cnc(N2CCN(C(=O)c3ccccc3)CC2)s1 [Example 22, 2-(4-benzoyl-piperazin-1-yl)-thiazole-5-carboxylic acid hydroxamide] | 3.5 µM | 40 µM
O=C(NO)c1cnc(N2CCC(NS(=O)(=O)c3ccc(-c4ccccc4)cc3)CC2)s1 [Example 5b] | – | 10 µM
Cc1ccc(S(=O)(=O)N2CCCN(c3ncc(C(=O)NO)s3)C2)cc1 [Example 5h] | 0.67 µM | 3.5 µM
CN(C)c1cccc2c(S(=O)(=O)N3CCN(c4ncc(/C=C/C(=O)NO)s4)CC3)cccc12 [Example 4k] | 318 µM | 4 µM
O=C(/C=C/c1cnc(N2CCN(S(=O)(=O)c3ccc(F)cc3)CC2)s1)NO [Example 4m] | 4.7 µM | 2.5 µM
O=C(NO)c1cnc(N2CCC(CNS(=O)(=O)c3ccc(-c4ccccc4)cc3)CC2)s1 [Example 5e, 2-(4-{[(1,1′-biphenylsulfonyl)amino]methyl}piperidin-1-yl)-1,3-thiazole-5-carboxylic acid hydroxyamide] | – | 2 µM
O=C(NO)c1cnc(N2CCN(Cc3ccccc3)CC2)s1 [Example 17, 2-(4-Benzyl-piperazin-1-yl)-thiazole-5-carboxylic acid hydroxyamide] | – | 4 µM
O=C(CN1CCN(c2ncc(C(=O)NO)s2)CC1)c1ccccc1 [Example 20B, 2-(4-(2-oxo-2-phenylethyl)-piperazin-1-yl)-1,3-thiazole-5-carboxylic acid hydroxyamide] | – | 4 µM
O=C(NO)c1cnc(N2CCN(C(=O)CCc3c[nH]c4ccccc34)CC2)s1 [Example 23b, 2-[4-(3-{1H-indol-3-yl}propanoyl)-piperazin-1-yl]-1,3-thiazole-5-carboxylic acid hydroxyamide] | 0.87 µM | 30 µM
O=C(NO)c1cnc(NC2CCN(S(=O)(=O)c3ccc4ccccc4c3)CC2)s1 [Example 5f, 2-{[1-(2-naphthylsulfonyl)piperidin-4-yl]amino}-1,3-thiazole-5-carboxylic acid hydroxyamide] | – | 20 µM
O=C(/C=C/c1cnc(N2CCN(S(=O)(=O)c3ccccc3)CC2)s1)NO [Example 4b] | 0.44 µM | 3 µM

More lines, main results first:

IC50 [1] | SMILES | GI50 (MCF7 cells)
118 µM | O=C(NO)c1cnc(N2CCN(CCc3ccccc3)CC2)s1 [Example 20, 2-(4-phenylethyl-piperazin-1-yl)-thiazole-5-carboxylic acid hydroxyamide] | –
5.9 µM | O=C(NO)c1cnc(N2CCCN(S(=O)(=O)c3ccc4ccccc4c3)CC2)s1 [Example 2, 1-(2-naphthylsulfonyl)-4-(5-hydroxyaminocarbonylthiazol-2-yl)-1,4-diazepane] | 10 µM
0.4 µM | COc1ccc(S(=O)(=O)N2CCN(c3ncc(/C=C/C(=O)NO)s3)CC2)cc1 [Example 4d] | 1 µM
11.4 µM | O=C(/C=C/c1cnc(N2CCN(S(=O)(=O)c3ccc(-c4ccccc4)cc3)CC2)s1)NO [Example 4j] | 1.5 µM
13.1 µM | O=C(NO)c1cnc(C2CCN(S(=O)(=O)c3ccc(-c4ccccc4)cc3)CC2)s1 [Example 25, 2-[1-(1,1′-biphenyl-4-ylsulfonyl)piperidin-4-yl]-1,3-thiazole-5-carboxylic acid hydroxyamide] | 100 µM
3.24 µM | O=C(/C=C/c1cnc(N2CCN(S(=O)(=O)c3ccc(OC(F)(F)F)cc3)CC2)s1)NO [Example 4e] | 6 µM
2.75 µM | CC(=O)N1CCN(c2ncc(C(=O)NO)s2)CC1 [Example 21, 2-(4-acetyl-piperazin-1-yl)-thiazole-5-carboxylic acid hydroxamide] | –
0.045 µM | O=C(/C=C/c1cnc(N2CCN(S(=O)(=O)c3ccc4ccccc4c3)CC2)s1)NO [Example 4] | 0.7 µM
6.9 µM | O=C(NO)c1cnc(CN2CCN(S(=O)(=O)c3ccc4ccccc4c3)CC2)s1 [Example 24] | 10 µM
0.05 µM | O=C(NO)c1cnc(N2CCC(NS(=O)(=O)c3ccc4ccccc4c3)CC2)s1 [Example 5] | 6 µM
0.6 µM | Cc1ccc(S(=O)(=O)NC2C3CN(c4ncc(C(=O)NO)s4)CC32)cc1 (centres unmarked) [Example 5g, 2-(6-{[(4-methylphenyl)sulfonyl]amino}-3-azabicyclo[3.1.0]hex-3-yl)-1,3-thiazole-5-carboxylic acid hydroxyamide] | 8 µM
0.65 µM | O=C(/C=C/c1cnc(N2CCN(S(=O)(=O)c3cccs3)CC2)s1)NO [Example 4i] | 18 µM
0.16 µM | COc1ccc(S(=O)(=O)N2CCN(c3ncc(/C=C/C(=O)NO)s3)CC2)cc1OC [Example 4c] | 4 µM
1.63 µM | O=C(/C=C/c1cnc(N2CCN(S(=O)(=O)c3ccc([N+](=O)[O-])cc3)CC2)s1)NO [Example 4h] | 5 µM
